Values joined by “and” are separate entries in the source; they are usually repeats but may differ in a detail not shown here. Equal entries are not always repeated. Where two headings read alike, the source gives them in different places. Values belong to the compound of their own block, whether it stands above or below them.
Experiments:
[1] = molecular target: T1, rat lens AR homogenate (aldose reductase) (Rattus norvegicus, UniProt P07943); assay: AR inhibition assay; assay type: biochemical, Sprague–Dawley rats
T1 construct: the lenses were removed from the eyes, ground in a mortar; from tissue; host or cells: lens of Sprague–Dawley rats
Procedure: The eyes of 10-week Sprague–Dawley rats (250–280 g) were removed and frozen at −70 °C before use. Thereafter, the lenses were removed from the eyes, ground in a mortar (precooled at −70 °C), and extracted using 0.1 M PBS of pH 6.2 (around 0.5 mL of buffer per two frozen rat lenses).
The AR inhibitory activities of the extract and the separated compounds were determined as described previously. […] Next, the reaction was initiated by adding 20 µL of the substrate (DL-glyceraldehyde dimmer, 25 mM in 0.1 M PBS of pH 7.0), and the values were further measured for 6 min at 340 nm (OD340) using an Epoch microplate spectrophotometer (BioTek Instruments, Winooski, VT, USA). […] The DMSO used for sample preparation was less than 0.4% (v/v) in the reaction system.

[2] = Hypochlorous acid (HOCl) scavenging assay
Procedure: The HOCl scavenging assay was adapted from a previous study using 1,8-diaminonaphthalene as a fluorescence probe for hypochlorite. […] Next, the fluorescence intensity (λex = 360 ± 20 nm, λem = 460 ± 20 nm) was immediately measured using a microplate fluorescence reader (FLx800; Bio-Tek, Winooski, VT, USA). Trolox (final concentration 25–100 µg/mL) was used as a reference antioxidant.

[3] = read-out: AR inhibitory Activity Inhibition (%)

SMILES: O=c1c(O)c(-c2ccc(O)c(O)c2)oc2cc(O)cc(O)c12 [Quercetin, quercetin, reference compound]
- inhibition at 1.889 µg/mL [1, 3]: 34.8 ± 0.51%
- inhibition at 3.778 µg/mL [1, 3]: 46 ± 4.49%
- inhibition at 6.25 µM [1, 3]: 34.8 ± 0.51%
- inhibition at 7.556 µg/mL [1, 3]: 67 ± 3.22%
- inhibition at 12.5 µM [1, 3]: 46 ± 4.49%
- inhibition at 25 µM [1, 3]: 67 ± 3.22%

SMILES: C[C@@H]1O[C@@H](Oc2c(-c3ccc(O)c(O)c3)oc3cc(O)cc(O)c3c2=O)[C@H](O)[C@H](O)[C@H]1O [Quercitrin, quercitrin, reference compound]
- IC50 ([1]; AR Inhibitory Activity IC50, rat lens AR): 103 nM
- IC50 ([1]; AR inhibitory Activity IC50, rat lens AR): 102 nM and 100 nM
- inhibition at 0.056 µg/mL [1, 3]: 62.33 ± 0.44%
- inhibition at 0.063 µM [1, 3]: 32.6 ± 2.7%
- inhibition at 0.112 µg/mL [1, 3]: 74.6 ± 1.11%
- inhibition at 0.125 µM [1, 3]: 62.33 ± 0.44%
- inhibition at 0.25 µM [1, 3]: 74.6 ± 1.11%

More lines, main results first:

- inhibition at 25 µM ([1]; 25 µM, read-out: AR inhibitory Activity Inhibition (%)): 12.3 ± 4.22%
- inhibition at 50 µM ([1]; 50 µM, read-out: AR inhibitory Activity Inhibition (%)): 24 ± 0.63%
- inhibition at 100 µM ([1]; 100 µM, read-out: AR inhibitory Activity Inhibition (%)): 36.3 ± 3.78%
SMILES: COc1ccc(-c2cc(=O)c3c(O)cc(O)cc3o2)cc1 [Acacetin (8), acacetin]

- inhibition at 0.01 µg/mL [1, 3]: 21.7 ± 1.25%
- inhibition at 0.02 µg/mL [1, 3]: 79.3 ± 1.35%
- inhibition at 0.031 µM [1, 3]: 21.7 ± 1.25%
- inhibition at 0.04 µg/mL [1, 3]: 91.8 ± 1.84%
- inhibition at 0.063 µM [1, 3]: 79.3 ± 1.35%
- inhibition at 0.125 µM [1, 3]: 91.8 ± 1.84%
SMILES: CC(/C=C1\SC(=S)N(CC(=O)O)C1=O)=C\c1ccccc1 [Epalrestat, epalrestat, reference compound]

- HOCl Scavenging Activity IC50 ([2]; linear regression): 8.52 µg/mL
- IC50 ([2]; linear regression): 34 µM
SMILES: Cc1c(C)c2c(c(C)c1O)CCC(C)(C(=O)O)O2 (stereo not drawn) [Trolox, reference compound]
- HOCl Scavenging Activity Inhibition (%) ([2]; 6.25 µg/mL): 40.76 ± 0.39%
- HOCl Scavenging Activity Inhibition (%) ([2]; 12.5 µg/mL): 66.53 ± 2.54%
- HOCl Scavenging Activity Inhibition (%) ([2]; 25 µM): 40.76 ± 0.39%
- HOCl Scavenging Activity Inhibition (%) ([2]; 25 µg/mL): 97.07 ± 5.45%
- HOCl Scavenging Activity Inhibition (%) ([2]; 50 µM): 66.53 ± 2.54%
- HOCl Scavenging Activity Inhibition (%) ([2]; 100 µM): 97.07 ± 5.45%

From publication PMC8152971, “Valeriana rigida Ruiz & Pav. Root Extract: A New Source of Caffeoylquinic Acids with Antioxidant and Aldose Reductase Inhibitory Activities” (Foods, 2021)
